According to patent US20130280391A1, “ANTI-MICROBIAL WASH COMPOSITIONS INCLUDING CERAGENIN COMPOUNDS AND METHODS OF USE FOR TREATING NON-MEAT FOOD PRODUCTS” (BRIGHAM YOUNG UNIVERSITY, priority 2012, published 2013):

Experiments:
[1] = test system: Campylobacter bacteria; assay: Example 3: killing of Campylobacter inoculated on food product samples by dip in wash composition; type: cell-based; conditions: 30 second dip; for log reduction of Campylobacter: versus positive control
Protocol: (§1) Example 2 was performed to determine the effectiveness of an anti-microbial wash composition including a ceragenin compound in controlling growth of Salmonella bacteria by fighting off a Salmonella inoculation. Example 3 was similarly performed to determine the effectiveness of the wash composition in controlling growth of Campylobacter bacteria by fighting off a Campylobacter inoculation. Examples 2 and 3 simulate the effectiveness of the present anti-microbial wash compositions to kill Salmonella and Campylobacter on a food product where the food product has become contaminated with Salmonella bacteria or Campylobacter bacteria.
(§2) A total of 15 food product samples were used for these tests. The 15 samples were divided into five groups of three each. Three samples were left untreated to serve as a negative control in order to observe natural levels of bacteria present on the samples. The remaining 12 samples were then inoculated with 1 mL of Salmonella and 1 mL of Campylobacter. The samples were allowed to dry for 20 minutes in order for the bacteria to adhere to the surface of the food product samples. One group of three of the inoculated samples, designated the positive control, were then rinsed with a wash composition including no anti-microbial agent to determine the level of bacteria after inoculation.
(§3) Each sample was withdrawn after 30 seconds. […] Each sample was withdrawn after 30 seconds. The fifth group of three inoculated samples was dipped one by one into a comparative proprietary non-CSA wash composition. Each of the samples was then rinsed, and the rinsate was collected to determine the levels and types of bacteria from each group. […] In other words, there were no changes to color, texture, taste, or smell, as a result of application of the ceragenin wash compositions.
In other words, the treatment was effective in killing 93.7% of the Campylobacter bacteria. […] In other words, the treatment was effective in killing 80% of the Campylobacter bacteria.

[2] = test system: Salmonella bacteria; assay: Example 2: killing of Salmonella inoculated on food product samples by dip in wash composition; type: cell-based; conditions: 30 second dip; for level of Salmonella bacteria in the rinsate: positive control nearly 10^3.5 CFUs/mL
Protocol: as §1, §2, §3
In other words, the wash composition including 500 ppm ceragenin compound killed 100% of Salmonella bacteria present.

[3] = 1000 ppm by weight aqueous wash

For `CCCCCCCCOC(=O)CC[C@@H](C)[C@H]1CC[C@H]2[C@@H]3[C@H](OC(=O)CCN)C[C@@H]4C[C@H](OC(=O)CCN)CC[C@]4(C)[C@H]3C[C@H](OC(=O)CCN)[C@]12C` [CSA-44], the Campylobacter bacteria killed ([1]; 500 ppm by weight aqueous wash) was 93.7%, the “log reduction of Campylobacter” value ([1]; 500 ppm by weight aqueous wash) was 1.2 log and the Campylobacter bacteria killed [1, 3] was 80%. For the same compound, the “log reduction of Campylobacter” value [1, 3] was 0.8 log, the Salmonella bacteria killed ([2]; 500 ppm by weight aqueous wash) was 100% and the “level of Salmonella bacteria in the rinsate” value ([2]; 500 ppm by weight aqueous wash) was “no detectable level of Salmonella bacteria”. For the same compound, the “level of Salmonella bacteria in the rinsate” value [2, 3] was “no detectable level of Salmonella bacteria”.
